Laboratory results: patent US20250144067A1, “PERSONALIZED STARVATION THERAPY FOR CANCER” (Faeth Therapeutics, Inc., priority 2021, published 2025)
Structures can show the parent of a compound that is named as a salt. Where two headings read alike, the source gives them in different places.

Tests used:
[1] = tested on: NCI-H292 lung cancer cells; experiment: FDA drug screening, complete media vs cholesterol-free media without statin (TABLE 1); format: cell-based, human
[2] = tested on: NCI-H292 lung cancer cells; experiment: FDA drug screening, complete media vs cholesterol-free media with simvastatin (TABLE 2); format: cell-based, human
[3] = Complete minus Cholesterol-free, greater than 0 enhanced anti-cancer activity, about 0 neutral, below 0 antagonists
[4] = NCI-H292 cells in cholesterol-free media without statin
[5] = NCI-H292 cells in complete media
[6] = NCI-H292 cells, FDA library drug in cholesterol-free media with simvastatin 0.04 μM
[7] = NCI-H292 cells, FDA library drug in complete media
[8] = complete media vs cholesterol-free media + simvastatin (0.04 μM), >0 enhanced anti-cancer activity, about 0 neutral, <0 antagonist
[9] = NCI-H292 cells, FDA drug library screen, cholesterol-free media without statin
[10] = NCI-H292 cells, FDA drug library screen, complete media
[11] = complete media vs cholesterol-free media + simvastatin (0.04 μM), […]
[12] = Complete minus Cholesterol-free, >0 enhanced anti-cancer activity, about 0 neutral, <0 antagonist
[13] = NCI-H292 cells, cholesterol-free media without statin, FDA drug library screen
[14] = NCI-H292 cells, complete media, FDA drug library screen
[15] = NCI-H292 cells, cholesterol-free media with simvastatin 0.04 μM, FDA drug library screen (TABLE 2)
[16] = NCI-H292 cells, complete media, FDA drug library screen (TABLE 2)
[17] = complete media minus cholesterol-free media + simvastatin (0.04 μM), >0 enhanced anti-cancer activity, about 0 neutral, <0 antagonist
[18] = complete vs cholesterol-free media, >0 enhanced anti-cancer activity, about 0 neutral, <0 antagonist
[19] = NCI-H292 cells, FDA drug library screen, cholesterol-free media with simvastatin 0.04 μM
[20] = NCI-H292 cells, cholesterol-free media without statin
[21] = complete media minus cholesterol-free media + simvastatin, >0 enhanced anti-cancer activity, about 0 neutral, <0 antagonist
[22] = NCI-H292 cells, cholesterol-free media with simvastatin 0.04 μM, cell growth value in FDA drug screen
[23] = NCI-H292 cells, complete media, cell growth value in FDA drug screen

Compound	Cholesterol-free media + simvastatin (0.04 μM) [2, 6]	Complete Media [2, 7]	Difference [2, 8]	Difference [1, 12]	Cholesterol-free [1, 13]	Complete [1, 14]	Difference [2, 17]	Difference [1, 18]	also measured
C[C@](N)(Cc1ccc(O)c(O)c1)C(=O)O.O [L-(−)-α-Methyldopa (hydrate)]	1.97	1.117	−0.85						Difference [1, 3]: −0.69; Cholesterol-free [1, 4]: 1.665; Complete [1, 5]: 0.973
CC=CC(=O)N(CC)c1ccccc1C [Crotamiton]									Difference ([1]; Complete minus Cholesterol-free, […]): −0.17; Cholesterol-free [1, 9]: 1.084; Complete [1, 10]: 0.9155; Cholesterol-free media + simvastatin (0.04 μM) ([2]; NCI-H292 cells, drug in cholesterol-free media with simvastatin 0.04 μM): 1.259; Complete Media ([2]; NCI-H292 cells, drug in complete media): 1.088; Difference [2, 11]: −0.17
CC(C)(C)C(O)/C=C/c1ccc2c(c1)OCO2 (centres unmarked) [Stiripentol]				0.02	0.9226	0.9415	−0.06		Cholesterol-free media + simvastatin (0.04 μM) [2, 15]: 0.9313; Complete Media [2, 16]: 0.8754
COC(=O)c1cc(OC)c2c(c1-c1c(CO)cc(OC)c3c1OCO3)OCO2 [Bicyclol]	1.331	1.025	−0.31		0.552	0.7456		0.19	
COS(=O)(=O)[O-].C[n+]1c2ccccc2nc2ccccc21 [Phenazine (methylsulfate)]				−0.01	0.03605	0.02161	−0.01		Cholesterol-free media + simvastatin (0.04 μM) [2, 15]: 0.07249; Complete Media [2, 16]: 0.06209
CN(C)/N=N/c1[nH]cnc1C(N)=O [Dacarbazine]			−0.12						Difference ([1]; Complete minus Cholesterol-free, greater than 0 enhanced anti-cancer activity, about 0 neutral, below 0 antagonist): −0.11; Cholesterol-free [1, 9]: 1.191; Complete [1, 10]: 1.077; Cholesterol-free media + simvastatin (0.04 μM) [2, 19]: 1.089; Complete Media [2, 10]: 0.9656
COc1cc(Cc2cnc(N)nc2N)cc(OC)c1OC [Trimethoprim]	1.335	1.064	−0.27		0.567	1.096		0.53	
COc1ccc2c(O[C@@H]3C[C@H]4C(=O)N[C@]5(C(=O)NS(=O)(=O)C6CC6)C[C@H]5/C=C\CCCCN(C)C(=O)[C@@H]4C3)cc(-c3nc(C(C)C)cs3)nc2c1C [Simeprevir]			−0.09		0.5666	0.795		0.23	Cholesterol-free media + simvastatin (0.04 μM) [2, 19]: 0.845; Complete Media [2, 10]: 0.7552
CCCCC(=O)O[C@H]1CC[C@H]2[C@@H]3CCc4cc(O)ccc4[C@H]3CC[C@]12C [Estradiol valerianate]							−0.03		Cholesterol-free [1, 20]: 1.221; Complete ([1]; NCI-H292 cells, complete media): 0.8253; Difference ([1]; complete vs cholesterol-free media, greater than 0 enhanced anti-cancer activity, about 0 neutral, below 0 antagonists): −0.40; Cholesterol-free media + simvastatin (0.04 μM) [2, 15]: 0.9732; Complete Media [2, 16]: 0.9423
N[C@@H](Cc1cc(I)c(Oc2cc(I)c(O)c(I)c2)c(I)c1)C(=O)O [L-Thyroxine]				−0.28					Cholesterol-free [1, 20]: 1.11; Complete ([1]; NCI-H292 cells, complete media): 0.8302; Cholesterol-free media + simvastatin (0.04 μM) [2, 19]: 1.059; Complete Media [2, 10]: 1.284; Difference [2, 21]: 0.23
CN[C@@H]1[C@H](O)[C@H](NC)[C@H]2O[C@@]3(O)C(=O)C[C@@H](C)O[C@H]3O[C@@H]2[C@H]1O [Spectinomycin (dihydrochloride)]					0.9841	1.077	0.02	0.09	Cholesterol-free media + simvastatin (0.04 μM) [2, 15]: 1.126; Complete Media [2, 16]: 1.142
CO[C@H]1/C=C/O[C@@]2(C)Oc3c(C)c(O)c4c(O)c(c(/C=N/N5CCN(C)CC5)c(O)c4c3C2=O)NC(=O)/C(C)=C\C=C\[C@H](C)[C@H](O)[C@@H](C)[C@@H](O)[C@@H](C)[C@H](OC(C)=O)[C@@H]1C [Rifampicin]	1.219	0.8641	−0.36		0.7396	1.143		0.40	
Chloramphenicol succinate (sodium)									Cholesterol-free [1]: 0.9119; Complete [1]: 0.8447; Difference [1]: −0.07; Cholesterol-free media + simvastatin (0.04 μM) [2]: 0.9173; Complete Media [2]: 0.8083; Difference [2]: −0.11
CC1(C)C(C=C(Cl)Cl)C1C(=O)OCc1cccc(Oc2ccccc2)c1 (centres unmarked) [Permethrin]	1.233	0.8994							Cholesterol-free [1, 20]: 1.352; Complete ([1]; NCI-H292 cells, complete media): 0.9496; Difference ([1]; complete vs cholesterol-free media, […]): −0.40; Difference [2, 11]: −0.33
CC(C)(C)OC(=O)N[C@H]1CCCCC/C=C\[C@@H]2C[C@@]2(C(=O)NS(=O)(=O)C2CC2)NC(=O)[C@@H]2C[C@@H](OC(=O)N3Cc4cccc(F)c4C3)CN2C1=O [Danoprevir]					0.802	1.257	0.00	0.45	Cholesterol-free media + simvastatin (0.04 μM) [2, 15]: 0.8835; Complete Media [2, 16]: 0.8799
CCCN[C@H]1CCc2nc(N)sc2C1 [Pramipexole]							−0.04		Difference [1, 3]: −0.68; Cholesterol-free [1, 4]: 1.519; Complete [1, 5]: 0.8353; Cholesterol-free media + simvastatin (0.04 μM) [2, 15]: 1.074; Complete Media [2, 16]: 1.035
CCCCCN(C)CCC(O)(P(=O)(O)O)P(=O)(O)O [Ibandronate (Sodium Monohydrate)]	1.077	0.796	−0.28	−0.03	1.101	1.074			
COc1cc(OC)cc(N(CCNC(C)C)c2ccc3ncc(-c4cnn(C)c4)nc3c2)c1 [Erdafitinib]					0.8277	1.177		0.35	Cholesterol-free media + simvastatin (0.04 μM) [2, 22]: 0.8898; Complete Media [2, 23]: 0.9602; Difference [2, 21]: 0.07
Clc1ccc(CCCOCCCN2CCCCC2)cc1 [Pitolisant (hydrochloride)]					0.9791	1.232		0.25	Cholesterol-free media + simvastatin (0.04 μM) [2, 19]: 0.442; Complete Media [2, 10]: 1.031; Difference [2, 21]: 0.59
C#Cc1cccc(Nc2ncnc3cc4c(cc23)OCCOCCOCCO4)c1 [Icotinib]				−0.05	0.4295	0.3774			Cholesterol-free media + simvastatin (0.04 μM) [2, 22]: 0.6476; Complete Media [2, 23]: 0.6925; Difference [2, 21]: 0.04
C[N+]1(C)CCC(OC(=O)C(O)(c2ccccc2)C2CCCC2)C1 (centres unmarked) [Glycopyrrolate]				0.02	0.8111	0.8296	−1.08		Cholesterol-free media + simvastatin (0.04 μM) [2, 19]: 2.314
COC(=O)N(C)c1c(N)nc(-c2nn(Cc3ccccc3F)c3ncccc23)nc1N [Riociguat]				−0.22					Cholesterol-free [1, 20]: 0.9238; Complete ([1]; NCI-H292 cells, complete media): 0.7003; Cholesterol-free media + simvastatin (0.04 μM) [2, 22]: 1.101; Complete Media [2, 23]: 1.185; Difference [2, 21]: 0.08
CN(C)CCCC1(c2ccc(F)cc2)OCc2cc(C#N)ccc21 (centres unmarked) [Citalopram (hydrobromide)]	1.457	0.8476	−0.61		0.8091	1.106		0.30	
